{"source": "paper PMC3681608", "about": "(Nature chemical biology, 2010)", "key": {"CK1ε": {"target": "CK1ε (Homo sapiens, UniProt P49674)", "sequence (P49674 whole entry)": "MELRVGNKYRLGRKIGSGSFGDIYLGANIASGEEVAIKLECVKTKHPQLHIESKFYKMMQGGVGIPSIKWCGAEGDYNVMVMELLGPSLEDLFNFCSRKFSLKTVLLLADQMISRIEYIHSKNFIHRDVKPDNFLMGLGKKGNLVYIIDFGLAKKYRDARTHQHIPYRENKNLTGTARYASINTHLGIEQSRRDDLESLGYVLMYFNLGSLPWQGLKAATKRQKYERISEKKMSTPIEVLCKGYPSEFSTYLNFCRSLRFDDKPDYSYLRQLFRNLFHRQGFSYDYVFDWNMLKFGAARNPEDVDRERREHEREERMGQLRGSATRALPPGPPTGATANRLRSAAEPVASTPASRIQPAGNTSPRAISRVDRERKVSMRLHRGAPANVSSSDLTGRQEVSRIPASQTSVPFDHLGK", "test": "fluorescence ligand dot blot with purified kinase at […] pyrvinium", "format": "binding"}, "CK1γ1": {"target": "CK1γ1 (Homo sapiens, UniProt Q9HCP0)", "sequence (Q9HCP0 whole entry)": "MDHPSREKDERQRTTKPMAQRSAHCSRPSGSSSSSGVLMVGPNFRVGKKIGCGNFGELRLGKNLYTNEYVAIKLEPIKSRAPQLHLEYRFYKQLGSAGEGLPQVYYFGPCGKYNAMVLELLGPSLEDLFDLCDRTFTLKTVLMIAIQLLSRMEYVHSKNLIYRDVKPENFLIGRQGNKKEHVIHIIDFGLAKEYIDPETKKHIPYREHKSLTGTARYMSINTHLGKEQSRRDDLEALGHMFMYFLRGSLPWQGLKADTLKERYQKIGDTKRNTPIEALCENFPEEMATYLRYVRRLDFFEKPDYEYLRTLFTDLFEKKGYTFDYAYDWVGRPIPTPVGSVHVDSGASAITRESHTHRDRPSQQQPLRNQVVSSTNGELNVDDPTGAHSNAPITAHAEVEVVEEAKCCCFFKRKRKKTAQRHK", "test": "fluorescence ligand dot blot with purified kinase at […] pyrvinium", "format": "binding"}}, "note": "Structures can show the parent of a compound that is named as a salt.", "data": [{"molecule": "Cc1cc(/C=C/c2ccc3cc(N(C)C)ccc3[n+]2C)c(C)n1-c1ccccc1", "note": "[compound 1, 6-(dimethylamino)-2-[2-(2,5-dimethyl-1-phenyl-1H-pyrrol-3-yl)ethenyl]-1-me thyl-quinolinium pamoate salt]", "values": [{"measurement": "fluorescence ligand dot blot with purified kinase at 10 nM pyrvinium", "setting": "CK1ε", "result": "Pyrvinium binds all full-length CK1 isoforms tested but only activates CK1α."}, {"measurement": "fluorescence ligand dot blot with purified kinase at 10 nM pyrvinium", "setting": "CK1γ1", "result": "Pyrvinium binds all full-length CK1 isoforms tested but only activates CK1α."}]}]}
